Measured values: PMC5402281, “Functional, thermodynamics, structural and biological studies of in silico-identified inhibitors of Mycobacterium tuberculosis enoyl-ACP(CoA) reductase enzyme” (Scientific Reports, 2017)
Where “and” joins values, the source holds several entries; their conditions need not be identical. Equal entries are not always repeated. Where two headings read alike, the source gives them in different places. Marks after values point to notes of the source that are not given here.

What was measured:
[1] = test system: M. tuberculosis H37Rv in infected RAW 264.7 macrophages; test: Intracellular activity in M. tuberculosis-infected macrophages (CFU); format: cell-based, Mycobacterium tuberculosis; conditions: 5 μM; for Mean log CFU/well ± SEM: 5 days of incubation; for nature of intracellular activity (bactericidal / bacteriostatic): 5 days, vs early and late control
in vitro [2] = format: cell-based
Experimental: (§1) Cellular viability determination after incubation with the test compounds (Labio_16 and Labio_17) was performed essentially as described elsewhere. Briefly, Vero (and Hacat/RAW) cells were grown in DMEM media supplemented with 10% inactivated fetal bovine serum and 1% penicillin-streptomycin. The cells were maintained in culture bottles at 37 °C in humidified atmosphere with 5% CO2. Cells were seeded at 3 × 10^3 cells per well (for Hacat/RAW or Vero) in a 96-well microtiter plate and incubated for 24 hours to adhere. Medium was carefully aspirated and replaced with 90 μL DMEM, and 10 μL of stocks of the chemical compounds were added to a final concentration of 20 μM (DMSO 2.0%, v/v). After 72 h at 37 °C under 5% of CO2, the cultures were incubated with 3-(4,5-dimethylthiazol-2-yl)-2,5-diphenyltetrazolium bromide (MTT) (1 mg mL^−1) for 3 h. The formazan crystals were dried at room temperature for at least 24 h and dissolved in DMSO. The absorbance was measured at 595 nm (Spectra Max M2e, Molecular Devices, USA). The percentage of cell viability for treated groups was reported considering the control wells (DMSO 0.5%-treated) as 100% of cell viability: cell viability (%) = (absorbance of treated wells/absorbance of control wells) x 100. Data are expressed as mean of cell viability ± standard error of mean of three independent experiments performed in triplicate.

M. tuberculosis H37Rv = test: microbe, parasite or virus in culture; format: cell-based; conditions: Mycobacterium tuberculosis
in vitro [3] = format: cell-based, murine; conditions: mouse
Experimental: as §1

[4] = biological target: T1, MtInhA:NADH binary complex (Mycobacterium tuberculosis, UniProt P9WGR1); test: biochemical; format: binding; conditions: for ΔG: estimated from ΔH and ΔS (Eq. 7); for ΔH / ΔS: van't Hoff analysis, 15–30 °C
T1 construct: made in house

MtInhA = biological target: T2, MtInhA (Mycobacterium tuberculosis, UniProt P9WGR1); test: MtInhA enzyme inhibition by steady-state kinetics (NADH oxidation at 340 nm); format: biochemical; conditions: for Ki: EI complex; for mode of inhibition with respect to NADH / mode of inhibition with respect to DD-CoA: Lineweaver-Burk plot
T2 construct: made in house
Experimental: In order to assess the relative potency of the compounds, inhibition studies were performed by steady-state kinetic studies using a UV-2550 UV/Visible spectrophotometer (Shimadzu^©), monitoring the NADH oxidation at 340 nm (εβ-NADH = […]), in the forward direction. Experiments were performed at 25 °C, in 100 mM Pipes pH 7.0 and were started with the addition of the 2.2 μM MtInhA to a total reaction volume of 500 μL, and monitoring the change in absorbance for 1 min. […] This is needed as IC50 and classical competitive, non-competitive and uncompetitive inhibition modes follow a rapid equilibrium process. Accordingly, MtInhA (2.2 μM) was pre-incubated with inhibitor (10 μM), aliquots were taken at different times and added to the reaction mixture containing NADH (60 μM) and DD-CoA (45 μM), and initial velocity measurements were plotted as a function of time of pre-incubation[6]. Control experiments were carried out pre-incubating MtInhA (2.2 μM) with DMSO (5%) in the absence of inhibitors, and initial velocity measured as a function of time of pre-incubation[6].
The IC50 value, which defines the concentration of inhibitor required to […], was calculated for each compound. The maximal rate for the enzyme reaction was determined in the absence of inhibitor, in the presence of fixed non-saturating concentration of NADH (60 μM ≅ Km) and DD-CoA (45 μM ≅ Km)[10][11][14]. The reaction velocity was analyzed as the percentage of inhibition as a function of inhibitor concentration and data were fitted to Eq 1.
The most promising compounds were further evaluated to assess the inhibition profile and to determine the inhibition constant (Ki). Initial rates were measured as a function of NADH concentration (10–160 μM) at fixed non-saturating DD-CoA concentration (45 μM) and fixed-varied inhibitor concentrations (0.5–120 μM). The Ki values towards NADH were calculated using the uncompetitive equation (Eq. 2) for compounds Labio_6 and Labio_16, in which [I] is the inhibitor concentration, [S] is the substrate concentration, Km and Vmax are, respectively, the Michaelis-Menten constant and maximum velocity, and Kii is the overall inhibition constant for the ESI complex. The Ki of Labio_03 was determined previously.
For compounds Labio_2, Labio_11, Labio_15 and Labio_17, the Ki values with respect to NADH were calculated using Eq. 3, which describes a non-competitive inhibition, where [I] is the inhibitor concentration, [S] is the substrate concentration, Km and Vmax are, respectively, the Michaelis-Menten constant and maximum velocity, Kii is the overall inhibition constant for the ESI complex and Kis is the overall inhibition constant for the EI complex.
Inhibition studies were also carried out in the presence of fixed non-saturating concentration of NADH (60 μM) and fixed-varied inhibitor concentrations (0.5–120 μM), when DD-CoA was the variable substrate (15–135 μM). For compounds Labio_2, Labio_6, and Labio_16, the inhibition constants for the DD-CoA substrate were determined using Eq. 3 for the non-competitive mode of inhibition. For compounds Labio_11, Labio_15 and Labio_17, the Ki for this substrate were calculated from data fitting to the equation for competitive inhibition (Eq. 4), in which [I] is the inhibitor concentration, [S] is the substrate concentration, Km and Vmax are, respectively, the Michaelis-Menten constant and maximum velocity, and Kis is the overall inhibition constant for the EI complex.

[5] = 216 h, 7 days + 48 h resazurin, read-out: MIC H37Rv
[6] = conversion of μg mL^−1 value, read-out: MIC H37Rv converted to
[7] = Ki DD-CoA Kis, varied DD-CoA 15–135 μM, fixed NADH 60 μM
[8] = varied NADH 10–160 μM, fixed DD-CoA 45 μM, ESI complex

T2 sequence (P9WGR1 whole entry, looked up): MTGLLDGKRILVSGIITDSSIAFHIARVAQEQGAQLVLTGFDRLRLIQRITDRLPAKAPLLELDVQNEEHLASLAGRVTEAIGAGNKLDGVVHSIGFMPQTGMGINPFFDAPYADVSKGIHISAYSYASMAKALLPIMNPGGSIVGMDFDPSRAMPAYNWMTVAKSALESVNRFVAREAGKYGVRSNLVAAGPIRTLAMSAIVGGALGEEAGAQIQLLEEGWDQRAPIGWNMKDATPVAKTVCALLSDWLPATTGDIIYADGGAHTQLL
T1 sequence (P9WGR1 whole entry, looked up, one chain of several): as the sequence (P9WGR1 whole entry, looked up) above

For Cc1ccccc1OCc1nc(-c2ccc(NC(=O)c3cccs3)cc2)no1 [Labio_16], the “Mean log CFU/well ± SEM” value [1] was 3.9 ± 0.1 log CFU/well, the “nature of intracellular activity (bactericidal / bacteriostatic)” value [1] was “bacteriostatic” and the viability at 72 h, 20 µM (in vitro [2]; African green monkey) was 89 ± 12%. It also gave a viability at 72 h, 20 µM (in vitro [2]; human) of 104 ± 12%, an MIC (M. tuberculosis H37Rv; [5]) of 2.5 µg/mL and an MIC (M. tuberculosis H37Rv; [6]) of 6.4 µM. For the same compound, the viability at 72 h, 20 µM (in vitro [3]) was 91 ± 1%, the Kd ([4]; 15 °C) was 0.9 ± 0.2 µM and the Kd ([4]; 20 °C) was 1.2 ± 0.1 µM. For the same compound, the Kd ([4]; 25 °C (298.15 K)) was 1.5 ± 0.2 µM, the Kd ([4]; 30 °C) was 2 ± 0.1 µM and the ΔG [4] was -8.0 kcal/mol and -8.0 ± 3.6 kcal/mol. For the same compound, the ΔH [4] was -9.4 kcal/mol and -9.4 ± 06 kcal/mol, the ΔS [4] was −4.8 cal.mol^−1.K^−1 and −4.8 ± 2.2 cal.mol^−1.K^−1 and the IC50 (MtInhA) was 24 ± 2 µM. The Ki (MtInhA; [7]) was 13 ± 1 µM, the “mode of inhibition with respect to NADH” value (MtInhA; fixed DD-CoA 45 μM) was “uncompetitive” and the “mode of inhibition with respect to DD-CoA” value (MtInhA; fixed NADH 60 μM) was “non-competitive”. For the same compound, the “Ki DD-CoA Kii” value (MtInhA; varied DD-CoA 15–135 μM, fixed NADH 60 μM, ESI complex) was 8 ± 3 µM and the “Ki NADH Kii” value (MtInhA; [8]) was 7 ± 1 µM.
With CCOC(=O)c1ccc2nc(C)cc(Nc3ccc(N4CCCCC4)cc3)c2c1 [Labio_17] the “Mean log CFU/well ± SEM” value [1] was 3.4 ± 0.1***^++ log CFU/well, the “nature of intracellular activity (bactericidal / bacteriostatic)” value [1] was “bactericidal” and the viability at 72 h, 20 µM (in vitro [2]; African green monkey) was 85 ± 8%. For the same compound, the viability at 72 h, 20 µM (in vitro [2]; human) was 84 ± 14%, the MIC (M. tuberculosis H37Rv; [5]) was 5 µg/mL and the MIC (M. tuberculosis H37Rv; [6]) was 12.8 µM. It also gave a viability at 72 h, 20 µM (in vitro [3]) of 98 ± 2%, a Kd ([4]; 25 °C (298.15 K)) of 7.2 ± 0.5 µM and a ΔG [4] of -7.1 ± 0.8 kcal/mol. For the same compound, the ΔH [4] was -23.3 ± 1.9 kcal/mol, the ΔS [4] was −54.5 ± 6.5 cal.mol^−1.K^−1 and the IC50 (MtInhA) was 20 ± 3 µM. The Ki (MtInhA; [7]) was 6.3 ± 0.7 µM, the Ki (MtInhA; Ki NADH Kis, varied NADH 10–160 μM, fixed DD-CoA 45 μM) was 8 ± 3 µM and the “mode of inhibition with respect to NADH” value (MtInhA; fixed DD-CoA 45 μM) was “non-competitive”. For the same compound, the “mode of inhibition with respect to DD-CoA” value (MtInhA; fixed NADH 60 μM) was “competitive” and the “Ki NADH Kii” value (MtInhA; [8]) was 8 ± 1 µM.
